What follows are molecules tested against T1, human RXFP1 (Homo sapiens, UniProt Q9HBX9) (assay: human RXFP1 (hRXFP1) HEK293 cAMP assay (HTRF)). Settings: HEK293 cells stably expressing human RXFP1, 30 min at room temperature.
T1 construct: expressed in transfected cells
T1 sequence (Q9HBX9 1-757): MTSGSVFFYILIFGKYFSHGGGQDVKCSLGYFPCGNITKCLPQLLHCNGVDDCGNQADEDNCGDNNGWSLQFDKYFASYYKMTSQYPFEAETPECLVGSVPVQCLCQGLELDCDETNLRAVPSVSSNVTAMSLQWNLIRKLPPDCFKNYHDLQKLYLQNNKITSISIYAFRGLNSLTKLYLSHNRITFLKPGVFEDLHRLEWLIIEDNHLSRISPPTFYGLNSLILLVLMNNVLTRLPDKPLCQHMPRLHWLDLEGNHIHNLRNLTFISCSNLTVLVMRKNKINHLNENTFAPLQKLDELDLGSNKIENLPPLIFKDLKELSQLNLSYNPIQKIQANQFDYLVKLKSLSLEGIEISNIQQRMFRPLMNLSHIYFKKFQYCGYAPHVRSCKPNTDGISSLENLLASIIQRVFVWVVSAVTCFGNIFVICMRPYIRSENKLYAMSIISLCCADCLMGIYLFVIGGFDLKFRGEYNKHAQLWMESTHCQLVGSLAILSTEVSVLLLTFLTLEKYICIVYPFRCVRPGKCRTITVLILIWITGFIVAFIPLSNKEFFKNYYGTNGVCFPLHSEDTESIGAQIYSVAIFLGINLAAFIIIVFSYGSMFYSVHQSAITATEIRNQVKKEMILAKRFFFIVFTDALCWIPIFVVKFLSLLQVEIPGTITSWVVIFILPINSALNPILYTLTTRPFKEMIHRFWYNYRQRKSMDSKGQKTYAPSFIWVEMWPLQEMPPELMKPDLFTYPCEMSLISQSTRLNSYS
Type: cell-based
Experimental: RXFP1 Cyclic Adenosine Monophosphate (cAMP) Assays. […] Cells were dissociated and suspended in assay buffer. The assay buffer was HBSS buffer (with calcium and magnesium) containing 20 mM HEPES, 0.05% BSA, and 0.5 mM IBMX. Cells (3000 cells per well, except 1500 cell per well for HEK293 cells stably expressing human RXFP1) were added to 384-well Proxiplates (Perkin-Elmer). Cells were immediately treated with test compounds in DMSO (2% final) at final concentrations in the range of 0.010 nM to 50 µM. Cells were incubated for 30 min at room temperature. The level of intracellular cAMP was determined using the HTRF HiRange cAMP assay reagent kit (Cisbio) according to manufacturer's instructions. Solutions of cryptate conjugated anti-cAMP and d2 fluorophore-labelled cAMP were made in a supplied lysis buffer separately. Upon completion of the reaction, the cells were lysed with equal volume of the d2-cAMP solution and anti-cAMP solution. […] The potency and activity of a compound to […] cAMP production was then determined by fitting to a 4-parametric logistic equation from a plot of cAMP level versus compound concentrations.
`O=C(O)c1cccc(C2=NOC(C(=O)N[C@@H]3C4CCC(/C4=C/C(F)(F)F)[C@@H]3C(=O)Nc3ccc(F)c(C(F)(F)F)c3)C2)c1` (stereo partly drawn) [Example 33, 3-(5-{[(2R,3S,7Z)-3-{[4-fluoro-3-(trifluoromethyl)phenyl]carbamoyl}-7-(2,2,2-trifluoroethylidene)bicyclo[2.2.1]heptan-2-yl]carbamoyl}-4,5-dihydro-1,2-oxazol-3-yl)benzoic acid] gave an EC50 of 4400 nM. Molecule `COc1ncc(-c2cc([C@H](O)C(F)(F)F)ccc2F)nc1C(=O)N[C@@H]1C2CCC(/C2=C/C(F)(F)F)[C@@H]1C(=O)Nc1ccc(F)c(C(F)(F)F)c1` (stereo partly drawn) [Example 34, N-[(2R,3S,7Z)-3-{[4-fluoro-3-(trifluoromethyl)phenyl]carbamoyl}-7-(2,2,2-trifluoroethylidene)bicyclo[2.2.1]heptan-2-yl]-6-{2-fluoro-5-[(1S)-2,2,2-trifluoro-1-hydroxyethyl]phenyl}-3-methoxypyrazine-2-carboxamide] has an EC50 of 3000 nM. With `COc1ncc(-c2cc([C@H](OC(=O)Nc3ccccc3)C(F)(F)F)ccc2F)nc1C(=O)N[C@@H]1C2CCC(/C2=C/C(F)(F)F)[C@@H]1C(=O)Nc1ccc(F)c(C(F)(F)F)c1` (stereo partly drawn) [Example 35, (1S)-2,2,2-trifluoro-1-[4-fluoro-3-(6-{[(2R,3S,7Z)-3-{[4-fluoro-3-(trifluoromethyl)phenyl]carbamoyl}-7-(2,2,2-trifluoroethylidene)bicyclo[2.2.1]heptan-2-yl]carbamoyl}-5-methoxypyrazine-2-yl)phenyl]ethyl N-phenylcarbamate] the EC50 was 42 nM. For `COc1cnc(-c2cc([C@H](OC(=O)Nc3ccccc3)C(F)(F)F)ccc2F)nc1C(=O)N[C@@H]1C2CCC(/C2=C/C(F)(F)F)[C@@H]1C(=O)Nc1ccc(F)c(C(F)(F)F)c1` (stereo partly drawn) [Example 36, (1S)-2.2,2-trifluoro-1-[4-fluoro-3-(4-{[(2R,3S,7Z)-3-{[4-fluoro-3-(trifluoromethyl)phenyl]carbamoyl}-7-(2,2,2-trifluoroethylidene)bicyclo[2. 2.1]heptan-2-yl]carbamoyl}-5-methoxypyrimidin-2-yl)phenyl]ethyl N-phenylcarbamate], the EC50 was 63 nM. `COc1cnc(-c2cc([C@H](OC(=O)NC3CCC3)C(F)(F)F)ccc2F)nc1C(=O)N[C@@H]1C2CCC(/C2=C/C(F)(F)F)[C@@H]1C(=O)Nc1ccc(F)c(C(F)(F)F)c1` (stereo partly drawn) [Example 37, (1S)-2,2,2-trifluoro-1-14-fluoro-3-(4-{[(2R,3S,7Z)-3-{[4-fluoro-3-(trifluoromethyl)phenyl]carbamoyl}-7-(2,2,2-trifluoroethylidene)bicyclo[2.2.1]heptan-2-yl]carbamoyl}-5-methoxypyrimidin-2-yl)phenyl]ethyl N-cyclobutylcarbamate] showed an EC50 of 95 nM. `COc1cnc(-c2cc([C@H](OC(=O)Nc3ccccc3)C(F)(F)F)ccc2F)cc1C(=O)N[C@@H]1C2CCC(/C2=C/C(F)(F)F)[C@@H]1C(=O)Nc1ccc(F)c(C(F)(F)F)c1` (stereo partly drawn) [Example 38, (1S)-2,2,2-trifluoro-1-14-fluoro-3-(4-{[(2R,3S,7Z)-3-{[4-fluoro-3-(trifluoromethyl)phenyl]carbamoyl}-7-(2.2,2-trifluoroethylidene)bicyclo[2.2.1]heptan-2-yl]carbamoyl}-5-methoxypyridin-2-yl)phenyl]ethyl N-phenylcarbamate] gave an EC50 of 63 nM. In the case of `COc1ccc(-c2cc([C@H](OC(=O)Nc3ccccc3)C(F)(F)F)ccc2F)nc1C(=O)N[C@@H]1C2CCC(/C2=C/C(F)(F)F)[C@@H]1C(=O)Nc1ccc(F)c(C(F)(F)F)c1` (stereo partly drawn) [Example 39, (1S)-2,2,2-trifluoro-1-14-fluoro-3-(6-{[(2R,3S,72)-3-{[4-fluoro-3-(trifluoromethyl)phenyl]carbamoyl}-7-(2,2,2-trifluoro-ethylidene)bicyclo[2. 2.1]heptan-2-yl]carbamoyl}-5-methoxypyridin-2-yl)phenyl]ethyl N-phenylcarbamate], the EC50 is reported as 110 nM. In the case of `O=C(O)c1ccc(F)c(-c2cnc(OCCO)c(C(=O)N[C@H]3[C@@H](C(=O)Nc4ccc(F)c(C(F)(F)F)c4)[C@H]4CC[C@@H]3/C4=C\C(F)(F)F)c2)c1` [Example 40, 4-fluoro-3-(5-(((1R,2R,3S,4R,Z)-3-((4-fluoro-3-(trifluoromethyl)phenyl)carbamoyl)-7-(2,2,2-trifluoroethylidene)bicyclo[2.2.1]heptan-2-yl)carbamoyl)-6-(2-hydroxyethoxy)pyridin-3-yl)benzoic acid], the EC50 is reported as 39 nM. `O=C(N[C@@H]1C2CCC(/C2=C/C(F)(F)F)[C@@H]1C(=O)Nc1ccc(F)c(C(F)(F)F)c1)c1cc(Br)cnc1OCCO` (stereo partly drawn) [Example 41, 5-bromo-N-[(2R,3S,7Z)-3-{[4-fluoro-3-(trifluoromethyl)phenyl]carbamoyl}-7-(2,2,2-trifluoroethylidene)bicyclo[2.2.1]heptan-2-yl]-2-(2-hydroxyethoxy) pyridine-3-carboxamide] was tested, and the EC50 was 770 nM. For `O=C(Nc1ccccc1)O[C@@H](c1ccc(F)c(-c2cnc(OCCO)c(C(=O)N[C@H]3[C@@H](C(=O)Nc4ccc(F)c(C(F)(F)F)c4)[C@H]4CC[C@@H]3/C4=C\C(F)(F)F)c2)c1)C(F)(F)F` [Example 42, (S)-2,2,2-trifluoro-1-(4-fluoro-3-(5-(((1R,2R,3S,4R,Z)-3-((4-fluoro-3-(trifluoromethyl)phenyl)carbamoyl)-7-(2,2,2-trifluoroethylidene)bicyclo[2.2.1]heptan-2-yl)carbamoyl)-6-(2-hydroxyethoxy)pyridin-3-yl)phenyl)ethyl phenylcarbamate], the EC50 was 8.1 nM. Work on `O=C(NC1CCC1)O[C@@H](c1ccc(F)c(-c2cnc(OCCO)c(C(=O)N[C@@H]3C4CCC(/C4=C/C(F)(F)F)[C@@H]3C(=O)Nc3ccc(F)c(C(F)(F)F)c3)c2)c1)C(F)(F)F` (stereo partly drawn) [Example 43, (IS)-2,2,2-trifluoro-1-14-fluoro-3-(5-{[(2R,3S,7Z)-3-{[4-fluoro-3-(trifluoromethyl)phenyl]carbamoyl}-7-(2,2,2-trifluoroethylidene)bicyclo[2. 2.1]heptan-2-yl]carbamoyl}-6-(2-hydroxyethoxy)pyridin-3-yl)phenyl]ethyl N-cyclobutylcarbamate] yielded an EC50 of 9.4 nM. In the case of `O=C(O)c1ccc(F)c(-c2cc(C(=O)N[C@@H]3C4CCC(/C4=C/C(F)(F)F)[C@@H]3C(=O)Nc3ccc(F)c(C(F)(F)F)c3)c(OCCO)cn2)c1` (stereo partly drawn) [Example 44, 4-Fluoro-3-(4-{[(2R,3S,7Z)-3-{[4-fluoro-3-(trifluoromethyl)phenyl]carbamoyl}-7-(2,2,2-trifluoroethylidene)bicyclo[2.2.1]heptan-2-yl]carbamoyl}-5-(2-hydroxyethoxy)pyridin-2-yl)benzoic acid], the EC50 is reported as 360 nM. Molecule `O=C(N[C@@H]1C2CCC(/C2=C/C(F)(F)F)[C@@H]1C(=O)Nc1ccc(F)c(C(F)(F)F)c1)c1cc(Br)ncc1OCCO` (stereo partly drawn) [Example 45, 2-Bromo-N-[(2R,3S,7Z)-3-{[4-fluoro-3-(trifluoromethyl)phenyl]carbamoyl}-7-(2,2,2-trifluoroethylidene)bicyclo[2. 2.1]heptan-2-yl]-5-(2-hydroxyethoxy) pyridine-4-carboxamide] has an EC50 of 560 nM. `O=C(NC1CCC1)O[C@@H](c1ccc(F)c(-c2cc(C(=O)N[C@@H]3C4CCC(/C4=C/C(F)(F)F)[C@@H]3C(=O)Nc3ccc(F)c(C(F)(F)F)c3)c(OCCO)cn2)c1)C(F)(F)F` (stereo partly drawn) [Example 46, (1S)-2,2,2-trifluoro-1-[4-fluoro-3-(4-{[(2R,3S,7Z)-3-{[4-fluoro-3-(trifluoromethyl)phenyl]carbamoyl}-7-(2,2,2-trifluoroethylidene)bicyclo[2. 2.1]heptan-2-yl]carbamoyl}-5-(2-hydroxyethoxy)pyridin-2-yl)phenyl]ethyl N-cyclobutyl-carbamate] showed an EC50 of 65 nM.

From patent US20250011288A1 (BRISTOL-MYERS SQUIBB COMPANY, priority 2021, published 2025)
